In data set [1] the target is T1, 5-hydroxytryptamine receptor 1A (Rattus norvegicus, UniProt P19327).
T1 sequence (P19327 whole entry): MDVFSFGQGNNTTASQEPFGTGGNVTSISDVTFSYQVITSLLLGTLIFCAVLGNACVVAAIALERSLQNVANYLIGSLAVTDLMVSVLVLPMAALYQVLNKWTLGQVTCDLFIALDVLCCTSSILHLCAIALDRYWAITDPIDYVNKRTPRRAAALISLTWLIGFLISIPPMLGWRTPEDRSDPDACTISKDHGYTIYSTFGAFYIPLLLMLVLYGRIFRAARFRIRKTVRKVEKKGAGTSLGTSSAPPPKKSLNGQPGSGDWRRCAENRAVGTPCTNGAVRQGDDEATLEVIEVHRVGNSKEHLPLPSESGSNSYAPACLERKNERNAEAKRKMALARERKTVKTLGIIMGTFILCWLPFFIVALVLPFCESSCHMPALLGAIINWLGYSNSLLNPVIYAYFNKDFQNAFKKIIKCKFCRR
Briefly: Displacement of radioligand [3H]2-(di-N-propylamino)-8-hydroxytetralin from 5-hydroxytryptamine 1A receptor in rat frontal cortex homogenate. The class given is tissue-based.

Data set [2] can be described thus: Ionization at 45 degree C. The class given is ADME.
Data set [3] can be described thus: Ionization at 37 degree C. The class given is ADME.
Data set [4] in a line: Ionization at 20 degree C. The data set is classed as ADME.
Data set [5] is described as follows: Ionization at 30 degree C. The data set is classed as ADME.
A short description of data set [6]: Ionization at 25 degree C. The class given is ADME.
Data set [7] has as its target T1, 5-hydroxytryptamine receptor 1A. In words: Displacement of radioligand [3H]2-(di-N-propylamino)-8-hydroxytetralin from 5-hydroxytryptamine 1A receptor in rat frontal cortex homogenate (experiment 1). The data set is classed as tissue-based.
Data set [8] addresses T2, Opioid receptor (Mus musculus, UniProt P42866+P32300+P33534). Briefly: Tested for displacement of radioligand [3H]-Naloxone from opiate receptor. The class given is protein assay.
The target of data set [9] is T2, Opioid receptor. In words: Tested for displacement of radioligand [3H]-Naloxone from opiate receptor; value ranges from 7-10 uM. The data set is classed as protein assay.

For orientation: Ki means a dissociation constant, usually derived from enzyme kinetics or from competition with a known ligand. As a reminder, the pKa is the negative logarithm of the acid dissociation constant. Read a high pKa as a weaker acid or stronger base. One may read the IC50 as the concentration needed to halve the response being measured. Low readings indicate higher potency, high ones lower potency.

The molecule `CCCCCCCCCCN1CCN(c2cccc3ccoc23)CC1` returned a Ki in [1] of 8 nM.
In [1], `CCCCCN1CCN(c2cccc3c2OCCO3)CC1` had a Ki of 2.2 nM. The pKa amounted to 7.91 in data set [2]; 8.06 in data set [3]; 8.41 in [4]; 8.21 in data set [5]; 8.27 in [6].
Consider `CCCN1CCN(c2cccc3ccoc23)CC1`, for which the Ki in data set [1] was found to be 29 nM. Moreover, the pKa in data set [3] amounted to 7.84.
Take `CC(C)N1CCN(c2cccc3ccoc23)CC1`: in [1], the affinity corresponds to a Ki of 56 nM.
The molecule `CCCCCN1CCN(c2cccc3ccoc23)CC1` registered a Ki in data set [1] of 0.81 nM. Moreover, the pKa in data set [3] is more than 7.7.
`CCN1CCN(c2cccc3c2OCCO3)CC1`: the pKa in data set [3] was determined as 8; in [4] it was 8.34.
`CCCCCCCCN1CCN(c2cccc3ccoc23)CC1` gave a Ki in data set [1] of 1.7 nM.
With `CCCCCN1CCN(c2cccc(Cl)c2)CC1`, the pKa in data set [2] was more than 7; in [3], more than 7.2; in data set [4], more than 7.4; in data set [5], more than 7.5; in data set [6], more than 7.4. This molecule also had a Ki in data set [7] of 7.8 nM.
Regarding `CCCCCCN1CCN(c2cccc3c2OCCO3)CC1`, the Ki in data set [1] was found to be 0.5 nM.
The same measure, in the same setting: as for `CCCCCCN1CCN(c2cccc3ccoc23)CC1`, the figure is 0.54 nM.
`CCCN1CCN(c2cccc3c2OCCO3)CC1` yielded a Ki in [1] of 80 nM. Also, the pKa in data set [3] stood at 8.02; in data set [4], 8.36.
With `c1cc(N2CCN(CC3CCCCC3)CC2)c2occc2c1`, in data set [1], affinity was put at a Ki of 7.7 nM. This lies in the single-digit nanomolar range.
`CN1CCN(c2cccc3c2OCCO3)CC1` showed an inhibition constant Ki in data set [1] of 24 nM. Besides, the pKa came out at 7.77 in data set [3] and 8.07 in data set [4].
In data set [1], `CCCCN1CCN(c2cccc3ccoc23)CC1` yielded a Ki of 5.9 nM. Further, the pKa in [3] came out at 7.77.
In turn, `c1cc(N2CCN(C3CCCCC3)CC2)c2occc2c1` came in with a Ki in data set [1] of 64 nM.
The same measure, in the same setting: as for `c1cc2c(c(N3CCN(CCC4CCCCC4)CC3)c1)OCCO2`, the figure is 0.25 nM; as for `c1cc2c(c(N3CCN(CC4CCCCC4)CC3)c1)OCCO2`, 11 nM.
`CCCCN1CCN(c2cccc3c2OCCO3)CC1` came in with a Ki in [1] of 12 nM. Moreover, the pKa worked out at 8.06 in data set [3] and 8.41 in data set [4].
In data set [1], `CCCCCCCCN1CCN(c2cccc3c2OCCO3)CC1` came in with a Ki of 0.61 nM.
`CCOC(=O)C1(c2ccccc2)CCN(CC)CC1` returned an IC50 at Opioid receptor [8] of 5000 nM.
The molecule `CN1CCN(c2cccc3ccoc23)CC1` returned a Ki in data set [1] of 8.1 nM. The same molecule yielded a pKa in data set [3] of 7.54.
On to `CCCCCCCCCN1CCC(C(=O)OCC)(c2ccccc2)CC1`, for which the IC50 at Opioid receptor [8] is 150 nM. In other words, the sub-micromolar range.
The same measure, in the same setting: as for `CCCCCCCN1CCC(C(=O)OCC)(c2ccccc2)CC1`, the figure is 55 nM.
The molecule `CCN1CCN(c2cccc3ccoc23)CC1` registered a Ki in data set [1] of 23 nM. Also, the pKa in data set [3] stood at 7.79.
`CCCCN1CCC(C(=O)CC)(c2cccc(O)c2)CC1` returned an IC50 on Opioid receptor [8] of 50000 nM.
In data set [1], `c1cc(N2CCN(CC3CC3)CC2)c2occc2c1` gave an inhibition constant (Ki) of 20 nM.
`CCCCCCN1CCC(C(=O)CC)(c2cccc(O)c2)CC1` showed an IC50 at Opioid receptor [8] of 20000 nM.
On the same count and under the same terms, as for `CCCCCCCCN1CCC(C(=O)OCC)(c2ccccc2)CC1`, the figure is 30 nM.
Turning to `c1cc(N2CCNCC2)c2occc2c1`, the inhibition constant (Ki) in data set [1] came to 13 nM. Also, the pKa amounted to 8.44 in data set [3] and 8.84 in [4].
For `CCCN1CCC(C(=O)OCC)(c2ccccc2)CC1`, the IC50 at Opioid receptor [8] was 4000 nM.
Same read-out and setting: as for `CCCCCCCCCCN1CCC(C(=O)CC)(c2cccc(O)c2)CC1`, the figure is 500000 nM; as for `CCCCN1CCC(C(=O)OCC)(c2ccccc2)CC1`, 900 nM.
On the same count and under the same terms, as for `CCCCCCCCN1CCC(C(=O)CC)(c2cccc(O)c2)CC1`, the figure is 200000 nM; as for `CCCCCCCCCN1CCC(C(=O)CC)(c2cccc(O)c2)CC1`, 700000 nM.
On the same count and under the same terms, as for `CCCCCN1CCC(C(=O)OCC)(c2ccccc2)CC1`, the figure is 400 nM; as for `CCCCCCCN1CCC(C(=O)CC)(c2cccc(O)c2)CC1`, 20000 nM.
Molecule `CCCCCCN1CCC(C(=O)OCC)(c2ccccc2)CC1` gave an IC50 on Opioid receptor [8] of 200 nM.
On to `CCCN1CCC(C(=O)CC)(c2cccc(O)c2)CC1`, for which the IC50 at Opioid receptor [8] is 200000 nM.
`CCC(=O)C1(c2cccc(O)c2)CCN(CC)CC1` gave an IC50 at Opioid receptor [8] of 400000 nM.
Regarding `CCCCCCCCCCN1CCN(c2cccc3c2OCCO3)CC1`, in [1], the affinity, expressed as Ki, was 1 nM.
For `CCCCCN1CCC(C(=O)CC)(c2cccc(O)c2)CC1`, on Opioid receptor [8], the IC50 was found to be 8000 nM.
In [1], `CC(C)CN1CCN(c2cccc3ccoc23)CC1` displayed a Ki of 64 nM.
Still for that read-out and setting: as for `COc1ccccc1N1CCNCC1`, the figure is 170 nM.
For the molecule `Clc1cccc(N2CCNCC2)c1` [CHLOROPHENYLPIPERAZINE], the pKa worked out at 8.12 in [2]; 8.36 in data set [3]; 8.72 in data set [4]; 8.46 in data set [5]; 8.6 in data set [6]. The Ki in data set [7] was 200 nM.
Regarding `c1cc2c(c(N3CCNCC3)c1)OCCO2` [ELTOPRAZINE], the pKa in data set [2] worked out at 8.55; in data set [3] it was 8.74; in [4] it was 9.18; in [5], 8.88; in data set [6], 8.99.
As to `O=C1c2ccccc2S(=O)(=O)N1CCCCN1CCN(c2ncccn2)CC1` [IPSAPIRONE], in data set [1], the Ki stood at 5.5 nM. This lies in the single-digit nanomolar range.
`CCC(=O)C1(c2cccc(O)c2)CCN(C)CC1` [KETOBEMIDONE] came in with an IC50 on Opioid receptor [9] of 7000 nM.

Source of the values: ChEMBL document CHEMBL1126802, “Structure-affinity relationship studies on 5-HT1A receptor ligands. 1. Heterobicyclic phenylpiperazines with N4-alkyl substituents” (J Med Chem, 1993).
